“And” between values parts separate entries of the source, which are not always exact repeats. Identical values can stand only once.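 All cell lines were grown in 96-well plates and treated with compound for 48 hours. GI50 is the concentration that inhibits growth by half. TGI is the concentration that stops growth completely.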
Columns and labels:
Assay in all cases: DTP human tumour cell line panel, 48 h
OVCAR-8 ovarian = tested on: OVCAR-8 ovarian
HL-60(TB) leukemia = tested on: HL-60(TB) leukemia
DMS 273 small cell lung = tested on: DMS 273 small cell lung
HCT-116 colon = tested on: HCT-116 colon
HT29 colon = tested on: HT29 colon
HCC-2998 colon = tested on: HCC-2998 colon
UO-31 renal = tested on: UO-31 renal
DMS 114 small cell lung = tested on: DMS 114 small cell lung
SF-268 CNS = tested on: SF-268 CNS
OVCAR-4 ovarian = tested on: OVCAR-4 ovarian
M19-MEL melanoma = tested on: M19-MEL melanoma
SR leukemia = tested on: SR leukemia
TK-10 renal = tested on: TK-10 renal
ACHN renal = tested on: ACHN renal
SNB-78 CNS = tested on: SNB-78 CNS
LXFL 529 NSCLC = tested on: LXFL 529 NSCLC
XF 498 CNS = tested on: XF 498 CNS
SK-MEL-5 melanoma = tested on: SK-MEL-5 melanoma
CCRF-CEM leukemia = tested on: CCRF-CEM leukemia
MOLT-4 leukemia = tested on: MOLT-4 leukemia
SW-620 colon = tested on: SW-620 colon
SK-MEL-2 melanoma = tested on: SK-MEL-2 melanoma
SF-295 CNS = tested on: SF-295 CNS
NCI-H460 lung = tested on: NCI-H460 lung
KM12 colon = tested on: KM12 colon
M14 melanoma = tested on: M14 melanoma
DLD-1 colon = tested on: DLD-1 colon
COLO 205 colon = tested on: COLO 205 colon
OVCAR-3 ovarian = tested on: OVCAR-3 ovarian
A549 NSCLC = tested on: A549 NSCLC
SNB-19 CNS = tested on: SNB-19 CNS
HOP-62 NSCLC = tested on: HOP-62 NSCLC
SK-MEL-28 melanoma = tested on: SK-MEL-28 melanoma
IGROV1 ovarian = tested on: IGROV1 ovarian
786-0 renal = tested on: 786-0 renal
RXF 393 renal = tested on: RXF 393 renal
NCI-H226 lung = tested on: NCI-H226 lung
SN12C renal = tested on: SN12C renal
NCI-H522 lung = tested on: NCI-H522 lung
SF-539 CNS = tested on: SF-539 CNS
HCT-15 colon = tested on: HCT-15 colon
UACC-62 melanoma = tested on: UACC-62 melanoma
U251 CNS = tested on: U251 CNS
LOX IMVI melanoma = tested on: LOX IMVI melanoma
EKVX NSCLC = tested on: EKVX NSCLC
KM20L2 colon = tested on: KM20L2 colon
K-562 leukemia = tested on: K-562 leukemia
BT-549 breast = tested on: BT-549 breast
SK-OV-3 ovarian = tested on: SK-OV-3 ovarian
MDA-N = tested on: MDA-N
UACC-257 melanoma = tested on: UACC-257 melanoma
MDA-MB-435 = tested on: MDA-MB-435
HOP-92 NSCLC = tested on: HOP-92 NSCLC
CAKI-1 renal = tested on: CAKI-1 renal
A498 renal = tested on: A498 renal
DU-145 prostate = tested on: DU-145 prostate
HS 578T breast = tested on: HS 578T breast
MDA-MB-231 breast = tested on: MDA-MB-231 breast
NCI-H23 lung = tested on: NCI-H23 lung
MALME-3M melanoma = tested on: MALME-3M melanoma
RPMI-8226 leukemia = tested on: RPMI-8226 leukemia
SNB-75 CNS = tested on: SNB-75 CNS
T-47D breast = tested on: T-47D breast
NCI/ADR-RES ovarian = tested on: NCI/ADR-RES ovarian
MCF7 breast = tested on: MCF7 breast
OVCAR-5 ovarian = tested on: OVCAR-5 ovarian
PC-3 prostate = tested on: PC-3 prostate

CN(C)CCNC(=O)c1ccc(Cl)c2c(Nc3ccc(S(=O)(=O)N=C(N)N)cc3)c3ccccc3nc12
TGI (OVCAR-8 ovarian): 15.2 µM | TGI (HL-60(TB) leukemia): 6.27 µM | TGI (DMS 273 small cell lung): 8.63 µM | TGI (HCT-116 colon): 17.8 µM | TGI (HT29 colon): 10.3 µM | TGI (HCC-2998 colon): 21.3 µM | TGI (UO-31 renal): 3.23 µM | TGI (DMS 114 small cell lung): 7.98 µM | TGI (SF-268 CNS): 19.7 µM | TGI (OVCAR-4 ovarian): 5.24 µM | TGI (M19-MEL melanoma): 17.3 µM | TGI (SR leukemia): 9.06 µM | TGI (TK-10 renal): 38.7 µM | TGI (ACHN renal): 18 µM | TGI (SNB-78 CNS): 48.1 µM | TGI (LXFL 529 NSCLC): 18.4 µM | TGI (XF 498 CNS): 27.1 µM | TGI (SK-MEL-5 melanoma): 25.5 µM | TGI (CCRF-CEM leukemia): 16.9 µM | TGI (MOLT-4 leukemia): 2.66 µM | TGI (SW-620 colon): 14.9 µM | TGI (SK-MEL-2 melanoma): 24.5 µM | TGI (SF-295 CNS): 15.2 µM | TGI (NCI-H460 lung): 10.2 µM | TGI (KM12 colon): 20.7 µM | TGI (M14 melanoma): 53.6 µM | TGI (DLD-1 colon): 18.4 µM | TGI (COLO 205 colon): 17.9 µM | TGI (OVCAR-3 ovarian): 30.6 µM | TGI (A549 NSCLC): 17.2 µM | TGI (SNB-19 CNS): 6.6 µM | TGI (HOP-62 NSCLC): 26.4 µM | TGI (SK-MEL-28 melanoma): 26.6 µM | TGI (IGROV1 ovarian): 18.5 µM | TGI (786-0 renal): 35 µM | TGI (RXF 393 renal): 19.3 µM | TGI (NCI-H226 lung): 6.67 µM | TGI (SN12C renal): 16.6 µM | TGI (NCI-H522 lung): 3.79 µM | TGI (SF-539 CNS): 14.7 µM | TGI (HCT-15 colon): 18.6 µM | TGI (UACC-62 melanoma): 20.3 µM | TGI (U251 CNS): 16.4 µM | TGI (LOX IMVI melanoma): 5.5 µM | TGI (EKVX NSCLC): 27.5 µM | TGI (KM20L2 colon): 19.2 µM | TGI (K-562 leukemia): 16.9 µM

O=C1C=CC(=O)c2c1c1c(c3c2C2c4ccccc4C3c3ccccc32)C2c3ccccc3C1c1ccccc12
GI50 (OVCAR-8 ovarian): 2.78 µM | TGI (OVCAR-8 ovarian): 2.94 µM | GI50 (HL-60(TB) leukemia): 0.657 µM | TGI (HL-60(TB) leukemia): 4.1 µM and 4.85 µM | TGI (DMS 273 small cell lung): 4.08 µM | TGI (HCT-116 colon): 2.85 µM and 2.91 µM | GI50 (HT29 colon): 1.64 µM | TGI (HT29 colon): 4.19 µM and 4.29 µM | TGI (BT-549 breast): 13.7 µM | GI50 (HCC-2998 colon): 4.91 µM | TGI (HCC-2998 colon): 17.4 µM | GI50 (UO-31 renal): 1.62 µM | TGI (UO-31 renal): 3.09 µM and 4.32 µM | TGI (DMS 114 small cell lung): 4.41 µM | TGI (SF-268 CNS): 16.5 µM | TGI (OVCAR-4 ovarian): 3.92 µM | TGI (M19-MEL melanoma): 3.6 µM | TGI (SK-OV-3 ovarian): 28.6 µM | TGI (MDA-N): 2.91 µM and 3.01 µM | GI50 (SR leukemia): 0.386 µM | TGI (SR leukemia): > 43.4 µM | TGI (UACC-257 melanoma): 3.58 µM | TGI (TK-10 renal): 3.31 µM and 3.4 µM | GI50 (ACHN renal): 1.96 µM | TGI (ACHN renal): 3.43 µM and 3.16 µM | TGI (SNB-78 CNS): 3.57 µM | TGI (LXFL 529 NSCLC): 2.27 µM | TGI (XF 498 CNS): 3.34 µM | GI50 (SK-MEL-5 melanoma): 1.52 µM | TGI (SK-MEL-5 melanoma): 3.11 µM and 6.21 µM | TGI (MDA-MB-435): 3.34 µM and 3.35 µM | GI50 (CCRF-CEM leukemia): 0.451 µM | TGI (CCRF-CEM leukemia): 2.93 µM | GI50 (HOP-92 NSCLC): 1.65 µM | TGI (HOP-92 NSCLC): 3.08 µM and 2.47 µM | GI50 (MOLT-4 leukemia): 0.393 µM | TGI (MOLT-4 leukemia): > 54.5 µM | GI50 (CAKI-1 renal): 1.5 µM | TGI (CAKI-1 renal): 2.83 µM and 3.25 µM | GI50 (SW-620 colon): 0.588 µM | TGI (SW-620 colon): 4.82 µM and 2.16 µM | TGI (SK-MEL-2 melanoma): 4.25 µM | GI50 (SF-295 CNS): 3.21 µM | TGI (SF-295 CNS): 30.4 µM | TGI (A498 renal): 11.1 µM | TGI (DU-145 prostate): 28.4 µM | GI50 (NCI-H460 lung): 3.85 µM | TGI (NCI-H460 lung): 26.8 µM | GI50 (KM12 colon): 2.49 µM | TGI (KM12 colon): 25.5 µM | GI50 (HS 578T breast): 2.38 µM | TGI (HS 578T breast): 6.24 µM | TGI (M14 melanoma): 3.29 µM and 3.12 µM | GI50 (MDA-MB-231 breast): 2.02 µM | TGI (MDA-MB-231 breast): 4.09 µM | GI50 (NCI-H23 lung): 1.81 µM | TGI (NCI-H23 lung): 4.36 µM and 6.61 µM | TGI (DLD-1 colon): 2.3 µM | GI50 (COLO 205 colon): 1.67 µM | TGI (COLO 205 colon): 3.66 µM and 2.86 µM | TGI (OVCAR-3 ovarian): 3.3 µM | TGI (MALME-3M melanoma): 3.07 µM and 3.05 µM | GI50 (RPMI-8226 leukemia): 0.479 µM | TGI (RPMI-8226 leukemia): > 22.1 µM | GI50 (A549 NSCLC): 3.08 µM | TGI (A549 NSCLC): 21.9 µM | GI50 (SNB-19 CNS): 3.62 µM | TGI (SNB-19 CNS): 34.4 µM | GI50 (HOP-62 NSCLC): 6.47 µM | TGI (HOP-62 NSCLC): 35.1 µM | TGI (SK-MEL-28 melanoma): 2.83 µM | GI50 (IGROV1 ovarian): 2.08 µM | TGI (IGROV1 ovarian): 4.58 µM and 14.7 µM | TGI (786-0 renal): 2.99 µM and 2.88 µM | GI50 (RXF 393 renal): 2.33 µM | TGI (RXF 393 renal): 3.86 µM and 3 µM | GI50 (NCI-H226 lung): 1.57 µM | TGI (NCI-H226 lung): 3.02 µM and 11.1 µM | GI50 (SN12C renal): 1.43 µM | TGI (SN12C renal): 3 µM and 7.45 µM | GI50 (NCI-H522 lung): 0.254 µM | TGI (NCI-H522 lung): 0.775 µM and 1.42 µM | TGI (SNB-75 CNS): 24.4 µM | TGI (SF-539 CNS): 11.5 µM | GI50 (HCT-15 colon): 1.22 µM | TGI (HCT-15 colon): 2.77 µM and 2.95 µM | GI50 (T-47D breast): 2 µM | TGI (T-47D breast): 3.25 µM and 3.49 µM | GI50 (NCI/ADR-RES ovarian): 2.64 µM | TGI (NCI/ADR-RES ovarian): 6.2 µM | GI50 (MCF7 breast): 2.58 µM | TGI (MCF7 breast): 3.29 µM and 7.55 µM | GI50 (UACC-62 melanoma): 1.74 µM | TGI (UACC-62 melanoma): 4.37 µM and 4.7 µM | TGI (OVCAR-5 ovarian): 16.3 µM | GI50 (U251 CNS): 4.05 µM | TGI (U251 CNS): 20.5 µM | GI50 (PC-3 prostate): 9.64 µM | TGI (PC-3 prostate): 3.37 µM and 21.6 µM | TGI (LOX IMVI melanoma): 2.91 µM and 3.08 µM | GI50 (EKVX NSCLC): 6.11 µM | TGI (EKVX NSCLC): 8.53 µM | TGI (KM20L2 colon): 15.2 µM | GI50 (K-562 leukemia): 0.552 µM | TGI (K-562 leukemia): 3.94 µM and 10.7 µM
